Experimental data taken from patent publication US3976695A, “Halogen substituted α-(aminoalkyl)-3,4-dihydroxybenzyl alcohols” (SmithKline Corporation, priority 1970, dated 1976).
Converted amounts (≈) assume the structure as drawn.

Experiments:
[1] = system: guinea pig tracheal chain preparations; test: relaxation of spontaneous tone of guinea pig tracheal chain (ring) preparation, β-stimulant effect on airway smooth muscle; settings: for absolute separation ratio: atrial ED25 versus tracheal ED50, in vitro guinea pig preparations
Text: (§1) Two in vitro test systems used for determining selective β-stimulant activity are: (1) effect on spontaneous tone of guinea pig tracheal chain preparations as a measure of β-stimulant (direct relaxant) effect on airway smooth muscle, and (2) effect on rate of spontaneously beating right atria of the guinea pig as a measure if β-stimulant effect on cardiac muscle.

[2] = system: right atria of the guinea pig; test: rate of spontaneously beating guinea pig right atria, β-stimulant effect on cardiac muscle; settings: Cavia porcellus, in vitro, read-out: ED25, increasing the rate of contraction of guinea pig right atria
Text: as §1

## CC(C)NCC(O)c1ccc(O)c(O)c1Cl (stereo not drawn) [2-chloro-3,4-dihydroxy-α-(isopropylaminomethyl)-benzyl alcohol]
[1]; Cavia porcellus, in vitro, guinea pig tracheal ring preparation, read-out: ED50, relaxes the spontaneous tone of guinea pig tracheal ring preparation
  EC50: 0.23 ng/mL (≈ 0.936 nM)
[1]
  absolute separation ratio: 7
[1]; versus d, 1-isoproterenol in similar in vitro preparations
  improvement of absolute separation ratio compared to d, 1-isoproterenol: 14 fold
[2]
  EC25: 1.6 ng/mL (≈ 6.51 nM)

## CC(C)NCC(O)c1ccc(O)c(O)c1 (centres unmarked) [d, 1-isoproterenol, reference compound]
[1]
  absolute separation ratio: 0.5
